Assay results as given in patent US11472803B2, “7-substituted 1-aryl-naphthyridine-3-carboxylic acid amides and use thereof” (Bayer Aktiengesellschaft, priority 2016, dated 2022).

Assays:
human M2 receptor [1] = biological target: T1, human M2 receptor (Homo sapiens, UniProt P08172); experiment: Functional M2-GIRK1/4 activation test: allosteric potency (EC50) and efficiency at EC20 acetylcholine; assay type: cell-based; conditions: CHO-DUKX-M2-GIRK cells; for EC50: voltage-sensitive dye, acetylcholine at EC20, in some cases mean of two or more determinations; for Emax: boosting of the acetylcholine effect at EC20 acetylcholine concentration
T1 construct: expressed in transfected cells; host or cells: CHO-DUKX (CHO-DUKX-M2-GIRK)
T1 sequence (P08172 1-466): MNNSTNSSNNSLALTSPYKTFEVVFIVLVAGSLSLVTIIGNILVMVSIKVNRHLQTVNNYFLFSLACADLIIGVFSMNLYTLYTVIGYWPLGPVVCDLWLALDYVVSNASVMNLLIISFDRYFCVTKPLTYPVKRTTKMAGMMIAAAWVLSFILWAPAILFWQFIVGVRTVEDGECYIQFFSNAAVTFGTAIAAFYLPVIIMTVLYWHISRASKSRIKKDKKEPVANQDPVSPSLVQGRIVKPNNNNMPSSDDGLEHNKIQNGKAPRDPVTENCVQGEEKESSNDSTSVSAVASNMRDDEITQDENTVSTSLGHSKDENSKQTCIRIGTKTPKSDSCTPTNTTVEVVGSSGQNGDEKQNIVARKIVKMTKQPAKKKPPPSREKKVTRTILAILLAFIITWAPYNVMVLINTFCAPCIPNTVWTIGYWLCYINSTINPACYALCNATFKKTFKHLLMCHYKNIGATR
How it was run: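 CHO-DUKX cells stably expressing human M2 and GIRK1/4; membrane potential tracked with voltage-sensitive dye at room temperature. Compound added 50 s before acetylcholine at its EC20, then hyperpolarization read 60 s. EC50 (allosteric potency) and efficiency (boost of EC20 ACh effect) from 4-parameter Hill fit.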

human M2 receptor [2] = biological target: T1, human M2 receptor; experiment: Functional M2-GIRK1/4 activation test: positive cooperativity (α factor), shift of acetylcholine dose-response curve; assay type: cell-based; conditions: Allosteric EC50 shift of acetylcholine 8-point dose-response curve; CHO-DUKX-M2-GIRK cells; α>1 = positive cooperativity
Description: The binding of orthosteric agonists (endogenous ligand: acetylcholine) to the M2 receptor leads to receptor activation or a change in conformation of the receptor in the manner of a shift in equilibrium in favour of the active receptor conformation.
The agonist-induced change in conformation of the M2 receptor results in a Gαi protein activation. […] Under physiological conditions, the result is then a selective efflux of potassium from the cell along the electrochemical gradient. […] The extent of hyperpolarization can therefore be regarded as a measure of the activation of the M2 receptor.
The test cell used is a recombinant CHO-DUKX cell line which has been stably transfected with cDNA coding for the human M2 receptor and with cDNA coding for both GIRK1/4 subunits (CHO-DUKX-M2-GIRK). The transmembrane potential, or the relative changes in the transmembrane potential as a function of substance addition or M2 activation, is determined by means of a voltage-sensitive dye (FLIPR Membrane Potential Assay Kit Blue, Molecular Devices #R8034) and the measurement of cell fluorescence using a proprietary fluorescence imaging instrument.
In accordance with the desired test concentrations, the substances were pre-diluted in loading buffer (see above).
The sowing medium consisted of MEM alpha medium (supplemented with 5% PCS, 2% Glutamax, no genticin).
For the particular measurement, the medium was removed and the cells were laden with the volt-age-sensitive dye for at least 6 min at room temperature (30 μl of loading buffer per 384-well). This was followed, in a first measurement, by the determination of the resting transmembrane potential for a period of 5 sec in 1 sec increments. Thereafter, 10 μl in each case of the test substances diluted in loading buffer are added, followed by a second measurement to determine the transmembrane potential for a period of 50 sec in 1 sec increments.
Finally, the cells are admixed with 10 μl of agonist solution (acetylcholine dissolved in loading buffer). In contrast to the EC50 determination of the test substances (see B-1.1), however, this is not done using one acetylcholine concentration; instead, every concentration of the test substance is combined with an acetylcholine 8-point dose-response curve. […] The M2-mediated GIRK1/4 activation or hyperpolarization is then monitored in a third measurement over a period of 60 sec in 1 sec increments. The shift in the acetylcholine dose-response curve in the presence of increasing concentrations of the test substance is analysed and quantified by means of GraphPad PRISM (Allosteric EC50 shift). […] Positive cooperativity is the hallmark of a positive allosteric modulator. […] The greater the magnitude of the α value, the greater the extent of cooperativity between orthosteric and allosteric.

Compound	EC50 (human M2 receptor [1])	Emax (human M2 receptor [1])	Cooperativity (alpha factor) (human M2 receptor [2])
CC(C)(NC(=O)c1cn(-c2c(F)cc(F)cc2F)c2nc(N3C[C@@H](O)[C@H](O)C3)c(F)cc2c1=O)C(F)(F)F [Example 23, 7-[(3R,4R)-3,4-dihydroxypyrrolidin-1-yl]-6-fluoro-4-oxo-N-(1,1,1-trifluoro-2-methylpropan-2-yl)-1-(2,4,6-trifluorophenyl)-1,4-dihydro-1,8-naphthyridine-3-carboxamide]	5.5 nM	100%	41
CC(C)C(NC(=O)c1cn(-c2c(F)cc(F)cc2F)c2nc(N3C[C@@H](O)[C@H](O)C3)c(F)cc2c1=O)C(C)C [Example 24, 7-[(3R,4R)-3,4-dihydroxypyrrolidin-1-yl]-N-(2,4-dimethylpentan-3-yl)-6-fluoro-4-oxo-1-(2,4,6-trifluorophenyl)-1,4-dihydro-1,8-naphthyridine-3-carboxamide]	1.35 nM	100%	57
CC(C)(NC(=O)c1cn(-c2c(F)cc(F)cc2F)c2nc(N3C[C@@H](O)[C@H](O)C3)c(F)cc2c1=O)C1CC1 [Example 25, N-(2-cyclopropylpropan-2-yl)-7-[(3R,4R)-3,4-dihydroxypyrrolidin-1-yl]-6-fluoro-4-oxo-1-(2,4,6-trifluorophenyl)-1,4-dihydro-1,8-naphthyridine-3-carboxamide]	4.05 nM	95%	45
CC[C@@H](NC(=O)c1cn(-c2c(F)cc(F)cc2F)c2nc(N3C[C@@H](O)[C@H](O)C3)c(F)cc2c1=O)C(F)(F)F [Example 36, 7-[(3R,4R)-3,4-dihydroxypyrrolidin-1-yl]-6-fluoro-4-oxo-N-[(2R)-1,1,1-trifluorobutan-2-yl]-1-(2,4,6-trifluorophenyl)-1,4-dihydro-1,8-naphthyridine-3-carboxamide]	5 nM	92%	51
O=C(N[C@@H](C1CC1)C(F)(F)F)c1cn(-c2c(F)cc(F)cc2F)c2nc(N3C[C@@H](O)[C@H](O)C3)c(Cl)cc2c1=O [Example 37, 6-chloro-N-[(1S)-1-cyclopropyl-2,2,2-trifluoroethyl]-7-[(3R,4R)-3,4-dihydroxypyrrolidin-1-yl]-4-oxo-1-(2,4,6-trifluorophenyl)-1,4-dihydro-1,8-naphthyridine-3-carboxamide]	6 nM	100%	38
CC(C)(NC(=O)c1cn(-c2c(F)cc(F)cc2Cl)c2nc(N3C[C@@H](O)[C@H](O)C3)c(F)cc2c1=O)C(F)(F)F [Example 41, 1-(2-chloro-4,6-difluorophenyl)-7-[(3R,4R)-3,4-dihydroxypyrrolidin-1-yl]-6-fluoro-4-oxo-N-(1,1,1-trifluoro-2-methylpropan-2-yl)-1,4-dihydro-1,8-naphthyridine-3-carboxamide]	3.3 nM	100%	37
CC1(O)CN(c2nc3c(cc2F)c(=O)c(C(=O)N[C@@H](C2CC2)C(F)(F)F)cn3-c2c(F)cc(F)cc2F)C1 [Example 53, N-[(1S)-1-Cyclopropyl-2,2,2-trifluoroethyl]-6-fluoro-7-(3-hydroxy-3-methylazetidin-1-yl)-4-oxo-1-(2,4,6-trifluorophenyl)-1,4-dihydro-1,8-naphthyridine-3-carboxamide]	16 nM	100%	30
O=C(N[C@@H](C1CC1)C(F)(F)F)c1cn(-c2c(F)cc(F)cc2F)c2nc(N3CC(O)C3)c(F)cc2c1=O [Example 54, N-[(1S)-1-Cyclopropyl-2,2,2-trifluoroethyl]-6-fluoro-7-(3-hydroxyazetidin-1-yl)-4-oxo-1-(2,4,6-trifluorophenyl)-1,4-dihydro-1,8-naphthyridine-3-carboxamide]	25 nM	100%	30
O=C(N[C@@H](C1CC1)C(F)(F)F)c1cn(-c2c(F)cc(F)cc2F)c2nc(N3CC(CO)(CO)C3)c(F)cc2c1=O [Example 84, 7-[3,3-Bis(hydroxymethyl)azetidin-1-yl]-N-[(1S)-1-cyclopropyl-2,2,2-trifluoroethyl]-6-fluoro-4-oxo-1-(2,4,6-trifluorophenyl)-1,4-dihydro-1,8-naphthyridine-3-carboxamide]	8.35 nM	88%	39
CCC(C)(C)NC(=O)c1cn(-c2c(F)cc(F)cc2F)c2nc(N3C[C@@H](O)[C@H](O)C3)c(F)cc2c1=O [Example 89, 7-[(3R,4R)-3,4-dihydroxypyrrolidin-1-yl]-6-fluoro-N-(2-methylbutan-2-yl)-4-oxo-1-(2,4,6-tri-fluorophenyl)-1,4-dihydro-1,8-naphthyridine-3-carboxamide]	4.75 nM	100%	44
CC(C)(C)NC(=O)c1cn(-c2c(F)cc(F)cc2F)c2nc(N3C[C@@H](O)[C@H](O)C3)c(F)cc2c1=O [Example 90, N-tert-Butyl-7-[(3R,4R)-3,4-dihydroxypyrrolidin-1-yl]-6-fluoro-4-oxo-1-(2,4,6-trifluoro-phenyl)-1,4-dihydro-1,8-naphthyridine-3-carboxamide]	18.5 nM	95%	30
CC[C@H](NC(=O)c1cn(-c2c(F)cc(F)cc2F)c2nc(N3C[C@@H](O)[C@@H](O)C3)c(F)cc2c1=O)C(F)(F)F [Example 98, 7-[(3R,4S)-3,4-Dihydroxypyrrolidin-1-yl]-6-fluoro-4-oxo-N-[(2S)-1,1,1-trifluorobutan-2-yl]-1-(2,4,6-trifluorophenyl)-1,4-dihydro-1,8-naphthyridine-3-carboxamide]	14.3 nM	98%	50
O=C(N[C@@H](C1CC1)C(F)(F)F)c1cn(-c2c(F)cc(F)cc2F)c2nc(N3CC[C@H](O)C3)c(F)cc2c1=O [Example 108, N-[(1S)-1-Cyclopropyl-2,2,2-trifluoroethyl]-6-fluoro-7-[(3S)-3-hydroxypyrrolidin-1-yl]-4-oxo-1-(2,4,6-trifluorophenyl)-1,4-dihydro-1,8-naphthyridine-3-carboxamide]	5.4 nM	96%	47
CC[C@H](NC(=O)c1cn(-c2c(F)cc(F)cc2F)c2nc(N3CC[C@H](O)C3)c(F)cc2c1=O)C(F)(F)F [Example 115, 6-Fluoro-7-[(3S)-3-hydroxypyrrolidin-1-yl]-4-oxo-N-[(2S)-1,1,1-trifluorobutan-2-yl]-1-(2,4,6-trifluorophenyl)-1,4-dihydro-1,8-naphthyridine-3-carboxamide]	6.65 nM	98%	53
O=C(NC(C(F)(F)F)C(F)(F)F)c1cn(-c2c(F)cc(F)cc2F)c2nc(N3C[C@@H](O)[C@H](O)C3)c(F)cc2c1=O [Example 144, 7-[(3R,4R)-3,4-Dihydroxypyrrolidin-1-yl]-6-fluoro-N-(1,1,1,3,3,3-hexafluoropropan-2-yl)-4-oxo-1-(2,4,6-trifluorophenyl)-1,4-dihydro-1,8-naphthyridine-3-carboxamide]	4.5 nM	98%	67
